ChEMBL document CHEMBL1833836, “Synthesis and evaluation of phosphoramidate and phosphorothioamidate analogues of amiprophos methyl as potential antimalarial agents” (Bioorg Med Chem Lett, 2011)
pIC50: −log10 of the molar value. The source made the active and inactive calls. No cut-off for these calls is given here.

Experiments:
Plasmodium falciparum [1] = assay: Antimalarial activity against Plasmodium falciparum 3D7 infected in O-positive human erythrocytes assessed as inhibition of parasite lactate dehydrogenase after 72 hrs by pLDH method; format: functional, organism-based; conditions: 3D7, 72 h
Plasmodium falciparum [2] = assay: Ratio of compound IC50 to APM IC50 for Plasmodium falciparum 3D7; format: functional
Plasmodium falciparum [3] = assay: Antimicrobial activity against Plasmodium falciparum up to 128 uM; format: functional, organism-based
Cryptosporidium parvum = assay: Antimicrobial activity against Cryptosporidium parvum infected in HCT8 cells assessed as parasite count after 72 to 120 hrs; format: functional, organism-based; conditions: HCT-8
Plasmodium falciparum [4] = assay: Antimicrobial activity against Plasmodium falciparum; format: functional, organism-based

SMILES | pIC50 (Plasmodium falciparum [1]) | Ratio IC50 (Plasmodium falciparum [2]) | inhibition (Plasmodium falciparum [3]) | pIC50 (Cryptosporidium parvum) | pIC50 (Plasmodium falciparum [4])
CCOP(NC1CCCC1)Oc1ccc(Br)cc1 (stereo unspecified) | 3.89 |  |  |  | 
CCOP(=O)(NC(C)C)Oc1ccc2ccccc2c1 (stereo unspecified) | 4.14 | 20 |  |  | 
CCOP(=O)(NC(C)C)Oc1ccccc1 (stereo unspecified) | < 3.89 | 20 |  |  | 
CC(C)OC(=O)Nc1cccc(Cl)c1 |  |  | inactive |  | 
CCCCCNP(=O)(OCC)Oc1ccc(C)cc1[N+](=O)[O-] (stereo unspecified) | 4.29 | 20 |  |  | 
CCOP(=O)(NC(C)C)Oc1ccc([N+](=O)[O-])c(C)c1 (stereo unspecified) | 4.10 | 20 |  |  | 
CCOP(=O)(NC1CCCC1)Oc1ccc(C)cc1[N+](=O)[O-] (stereo unspecified) | 4.33 | 20 |  |  | 
CCOP(=S)(NC1CCCC1)Oc1ccc(C(F)(F)F)cc1 (stereo unspecified) | 5.07 | 20 |  |  | 
CCOP(=O)(Oc1ccc(C(F)(F)F)cc1)N(CC)CC (stereo unspecified) | 4.32 | 20 |  |  | 
CCOP(=O)(NC(C)C)Oc1ccccc1C(F)(F)F (stereo unspecified) | 4.06 | 20 |  |  | 
CCOP(=O)(NC(C)C)Oc1cccc(C(F)(F)F)c1 (stereo unspecified) | 4.30 | 20 |  |  | 
CCOP(=O)(NC(C)C)Oc1ccc(C)cc1C#N (stereo unspecified) | 3.89 | 20 |  |  | 
CCOP(=O)(NC(C)C)Oc1cc(C)ccc1[N+](=O)[O-] (stereo unspecified) | < 3.89 | 20 |  |  | 
CCOP(=S)(NC1CCCC1)Oc1ccc(Br)cc1 (stereo unspecified) | 4.64 |  |  |  | 
CCOP(=O)(NCC(C)C)Oc1cc(C)ccc1[N+](=O)[O-] (stereo unspecified) | < 3.89 | 20 |  |  | 
CCOP(=O)(NC1CCCC1)Oc1ccc(C(F)(F)F)cc1 (stereo unspecified) | 4.59 | 20 |  |  | 
CCOP(=O)(NC(C)C)Oc1ccc(C)cc1OC (stereo unspecified) | 3.89 | 20 |  |  | 
COP(=S)(NC(C)C)Oc1ccc(C)cc1[N+](=O)[O-] (stereo unspecified) [AMIPROPHOS METHYL] | 5.40 |  |  |  | 
CCCCCNP(=S)(OCC)Oc1ccc(C(F)(F)F)cc1 (stereo unspecified) | 5.35 |  |  |  | 
CCCN(CCC)c1c([N+](=O)[O-])cc(C(F)(F)F)cc1[N+](=O)[O-] [TRIFLURALIN] |  |  |  | 6.12 | 5.54
CCCNP(=O)(OCC)Oc1cc(C)ccc1[N+](=O)[O-] (stereo unspecified) | 3.99 | 20 |  |  | 
CCOP(=O)(Oc1ccc(C(F)(F)F)cc1)N1CCOCC1 (stereo unspecified) | 4.01 | 20 |  |  | 
CCCNP(=O)(OCC)Oc1ccc(C)cc1[N+](=O)[O-] (stereo unspecified) | < 3.89 | 20 |  |  | 
CCCCNP(=O)(OCC)Oc1ccc(C(F)(F)F)cc1 (stereo unspecified) | 4.49 | 20 |  |  | 

SMILES | pIC50 (Plasmodium falciparum [1]) | Ratio IC50 (Plasmodium falciparum [2]) | inhibition (Plasmodium falciparum [3]) | pIC50 (Cryptosporidium parvum) | pIC50 (Plasmodium falciparum [4])
CCOP(=O)(NC1CCC1)Oc1ccc(C(F)(F)F)cc1 (stereo unspecified) | 4.35 | 20 |  |  | 
CCN(CC)CCN(CC)c1c([N+](=O)[O-])cc([N+](=O)[O-])cc1C(F)(F)F |  |  |  |  | 6.36
CCOP(=O)(NCC(C)C)Oc1ccc(C)cc1[N+](=O)[O-] (stereo unspecified) | 4.12 | 20 |  |  | 
CCOP(=O)(Oc1ccc(C(F)(F)F)cc1)N1CCCC1 (stereo unspecified) | 4.25 | 20 |  |  | 
CCOP(=O)(NC(C)C)Oc1cccc([N+](=O)[O-])c1C (stereo unspecified) | 3.89 | 20 |  |  | 
CCCCCNP(=S)(OCC)Oc1ccc([N+](=O)[O-])cc1C (stereo unspecified) | 5.16 |  |  |  | 
CCOP(=O)(NC(C)C)Oc1ccc2ccccc2c1[N+](=O)[O-] (stereo unspecified) | 4.06 | 20 |  |  | 
CCOP(=O)(Oc1ccc(C(F)(F)F)cc1)N1CCCCC1 (stereo unspecified) | 4.08 | 20 |  |  | 
CCOP(=O)(NC(C)C)Oc1ccc(C(F)(F)F)cc1 (stereo unspecified) | 4.30 | 20 |  |  | 
CCOP(=O)(NC(C)C)Oc1ccc([N+](=O)[O-])cc1C (stereo unspecified) | 3.89 | 20 |  |  | 
CCOP(=S)(NC1CCCC1)Oc1ccc([N+](=O)[O-])cc1C (stereo unspecified) | 5.80 |  |  |  | 
CCCN(CCC)c1c([N+](=O)[O-])cc(S(N)(=O)=O)cc1[N+](=O)[O-] [ORYZALIN] |  |  |  | 6.10 | 
CCCCCCCNP(=O)(OCC)Oc1ccc(C(F)(F)F)cc1 (stereo unspecified) | 4.36 | 20 |  |  | 
CCOP(N)(=O)Oc1ccc(C(F)(F)F)cc1 (stereo unspecified) | 4.10 | 20 |  |  | 
CCOP(=O)(Nc1ccc(C)cc1Cl)Oc1ccc(C)cc1Cl (stereo unspecified) | 3.99 | 20 |  |  | 
CCOP(=O)(NCC(C)C)Oc1ccc(C(F)(F)F)cc1 (racemic) | 4.40 | 20 |  |  | 
CCCCNP(=O)(OCC)Oc1ccc(C)cc1[N+](=O)[O-] (stereo unspecified) | 4.55 | 20 |  |  | 
CCOP(=O)(NC(C)C)Oc1cc([N+](=O)[O-])ccc1C (stereo unspecified) | 3.89 | 20 |  |  | 
CCOP(=O)(NC(C)C)Oc1ccc(C)cc1Cl (stereo unspecified) | 4.41 | 20 |  |  | 
CCOP(=O)(NC1CCCCC1)Oc1ccc(C(F)(F)F)cc1 (stereo unspecified) | 4.37 | 20 |  |  | 
CCOP(=O)(NC(C)C)Oc1ccc(C)cc1[N+](=O)[O-] (stereo unspecified) | 3.90 | 20 |  |  | 
O=[N+]([O-])c1cc([N+](=O)[O-])c(N2CCC(N3CCCC3)CC2)c(C(F)(F)F)c1 |  |  |  |  | 6.36
CCOP(=O)(NC1CCCC1)Oc1ccc(Br)cc1 (stereo unspecified) | 4.77 | 20 |  |  | 
CCOP(=O)(NC(C)C)Oc1ccc(C)cc1Br (stereo unspecified) | 4.41 | 20 |  |  | 
